Measurements as given in patent US5348941A, “Stabilizers for fibroblast growth factors” (Merck & Co., Inc., priority 1992, dated 1994).
Where two headings read alike, the source gives them in different places.

Assays:
acidic FGF (aFGF) = acidic FGF (aFGF) (Homo sapiens, UniProt P05230); test: biochemical; settings: for Approx. Molar Ratio (ligand to aFGF at 50% inhibition of aggregation): Table 1; for stabilization of aFGF against heat-induced aggregation: 0.5X and 10X ligand, FIGS. 6-8
Description: Stabilization of aFGF can be determined by several independent methods including turbidity measurements, spectroscopic techniques, maintenance of protein mass, mitogenic activity and copper catalyzed oxidation. Since acidic fibroblast growth factor is unstable at physiological temperatures (undergoing large structural changes, including aggregation, which results in a loss of mitogenic and wound healing activity), human aFGF stability can be monitored by evaluating the turbidity of the pharmaceutical composition by following the kinetics of temperature induced aggregation of unfolded protein.
The kinetics of protein aggregation (stabilization) are monitored by the degree of light scattering at about OD350 nm using a Perkin Elmer Lambda 6 UV-visible spectrophotometer equipped with a six-cuvette holder. Temperature is controlled by circulating a water/ethylene glycol solution through the cell holder. About 0.9 ml of a PBS solution (6 mM sodium phosphate, 120 mM NaCl, pH 7.2) was placed into a cuvette and incubated at the appropriate temperature within the spectrophotometer. Once equilibrated, 100 μl of a 1 mg/ml aFGF solution containing the appropriate amount of ligand (stabilizer) is added to the cuvette and mixed manually by inversion. The change in optical density at 350 nm over time is continuously monitored. A dead time of 30s was present due to the mixing of the six samples in each experiment.
To examine the interactions between aFGF and heparin, a spectrophotometric turbidity assay was developed. This technique monitors the structural stability of aFGF by following the kinetics of temperature induced aggregation of unfolded protein by measurement of the degree of light scattering (turbidity) at 350 nm. The kinetics of protein aggregation were monitored by the degree of light scattering at 350 nm using a Perkin Elmer Lambda 6 UV-visible spectrophotometer equipped with a six-cuvette holder. Temperature was controlled by circulating a water/ethylene glycol solution through the cell holder. A PBS solution, 0.9 ml, (6 mM phosphate, 120 mM NaCl pH 7.2) was placed into a cuvette and incubated at the appropriate temperature within the spectrophotometer. Once equilibrated, 100 μl of a 1 mg/ml aFGF solution containing the appropriate amount of ligand was added to the cuvette and mixed manually by inversion. The change in optical density at 350 nm over time was continuously monitored. A dead time of 30s was present due to the mixing of the six samples in each experiment.
Samples contained 100 μg/ml aFGF in a PBS buffer at pH 7.2 with the indicated ratio of heparin to aFGF (wt:wt).
Samples contained 100 μg/ml protein in a PBS buffer, pH 7.2 with (a) no heparin, (b) 1.5 μg/ml, (c) 3 μg/ml, (d) 5 μg/ml, (e) 10 μg/ml and (f) 50 μg/ml heparin. Only representative data points are shown for clarity. […] Using the initial linear portion of the slope of turbidity vs. time plots as a measure of the rate of aggregation, the effect of polyanion concentration can be quantitatively characterized. The Y-axis represents the maximum rate of turbidity formation (ΔOD350 nm/min) normalized to sample (a) containing no heparin. The curve is drawn through data points for clarity only. The IC50 is the concentration of ligand at which the rate of aggregation is 50% of the control sample.

aFGF = target: T1, aFGF (Homo sapiens, UniProt P05230); test: Thermal denaturation (Tm) of aFGF by circular dichroism; assay type: biochemical; settings: for Tm of aFGF, circular dichroism: 3X ligand by weight
T1 construct: The recombinant derived, 140 amino add form is the preferred form of aFGF; N-terminal methionine (MetHaFGF); made in house; host or cells: microbial cells (preferred embodiment)
T1 sequence (P05230 16-155 limits assumed): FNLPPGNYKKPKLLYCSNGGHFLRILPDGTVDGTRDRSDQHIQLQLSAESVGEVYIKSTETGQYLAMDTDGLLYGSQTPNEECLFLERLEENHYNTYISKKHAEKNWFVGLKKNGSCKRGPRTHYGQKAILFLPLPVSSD
Experimental: Circular Dichroism (CD) spectra are measured with an AVIV 62 DS spectropolarimeter. Samples of aFGF at about 100 μg/ml in a PBS buffer (6 mM sodium phosphate, 120 mM NaCl, pH 7.2) containing various ligands are placed into 1 mm pathlength cells and the cell temperature is controlled by circulating a water/ethylene glycol mixture through the cell holder. Thermal denaturation is carded out under computer control by increasing the temperature of the water bath in 2° C. increments, followed by a two-minute equilibration period at each temperature to allow the sample to reach thermal equilibrium. Reproducibility of the midpoint of these temperature melting curves (Tm) is ±2° C.
The maximum Tm values induced by 12 different ligands as determined by circular dichroism measurements at 228 nm are summarized in the first column of Table II. All of these ligands stabilize aFGF by 15°-25° C. in a manner similar to that originally observed with heparin. […] Furthermore, sulfate unions are found near analogous residues in the crystal structure of basic FGF, Eriksson et al., Proc. Natl. Acad. Sd. USA 88:3441-3445 (1991); Zhang et al., Proc. Natl. Acad. Sci. USA 88:3446-3450 (1991). Consequently, it seemed important to examine the ability of these ligands to stabilize aFGF during thermal denaturation as monitored by both fluorescence and circular dichroism. The Tm value of aFGF increased from 27° C. to 43° C. (fluorescence)and 45° C. to 51° C. (CD) when a 100 molar excess (3X by weight) of (IrCl6)^-3 was present. Similarly, sulfate union (120 mM) produced a species that was even more dramatically stabilized, melting at 57° C. (CD).
^(a) Thermal melting temperatures were measured by circular dichroism
Samples contained […] aFGF in PBS buffer pH 7.2 with excess ligand
(1-3× by weight except for 120 mM sodium sulfate and 10 mM

[1] = 40° C., 100 μg/ml aFGF, PBS pH 7.2, read-out: IC50: concentration of ligand at which the rate of heat-induced aggregation of aFGF is 50% of the sample without ligand (converted)
[2] = 40° C., 100 μg/ml aFGF, PBS pH 7.2

Chain of acidic FGF (aFGF) (P05230 16-155 limits assumed): as above

Compound	IC50 (acidic FGF (aFGF); [1]) [µM]	Approx. Molar Ratio (ligand to aFGF at 50% inhibition of aggregation) (acidic FGF (aFGF); 40° C.)	stabilization of aFGF against heat-induced aggregation (acidic FGF (aFGF); 40° C.)	further results
Nc1ncnc2c1ncn2[C@@H]1O[C@H](COP(=O)(O)OP(=O)(O)O)[C@@H](O)[C@H]1O [ADP]	200	33		
Nc1ncnc2c1ncn2[C@@H]1O[C@H](COP(=O)(O)OP(=O)(O)OP(=O)(O)OP(=O)(O)O)[C@@H](O)[C@H]1O [AT4P]	10	1.6		
Nc1ncnc2c1ncn2[C@@H]1O[C@H](COP(=O)(O)OP(=O)(O)OP(=O)(O)O)[C@@H](O)[C@H]1O [ATP]		5	significantly enhance the thermal stability of aFGF	IC50 (acidic FGF (aFGF)): 30 µM
N.N.O=S(=O)(O)O [Ammonium sulfate, ammonium sulfate]		80		number of ligand molecules per aFGF (molar ratio) required for stabilization (acidic FGF (aFGF); 40° C.): about 80; IC50: concentration of ligand at which the rate of heat-induced aggregation of aFGF is 50% of the sample without ligand (acidic FGF (aFGF); [2]): 70 µg/mL
Nc1ncnc2c1ncn2[C@@H]1O[C@H](COP(=O)(O)OP(=O)(O)OP(=O)(O)OC[C@H]2O[C@@H](n3cnc4c(N)ncnc43)[C@H](O)[C@@H]2O)[C@@H](O)[C@H]1O [Ap3A]	250	42		
Nc1ncnc2c1ncn2[C@@H]1O[C@H](COP(=O)(O)OP(=O)(O)OP(=O)(O)OP(=O)(O)OC[C@H]2O[C@@H](n3cnc4c(N)ncnc43)[C@H](O)[C@@H]2O)[C@@H](O)[C@H]1O [Ap4A]	30	5		
Nc1ncnc2c1ncn2[C@@H]1O[C@H](COP(=O)(O)OP(=O)(O)OP(=O)(O)OP(=O)(O)OP(=O)(O)OC[C@H]2O[C@@H](n3cnc4c(N)ncnc43)[C@H](O)[C@@H]2O)[C@@H](O)[C@H]1O [Ap5A]	10	1.6		
Nc1ncnc2c1ncn2[C@@H]1O[C@H](COP(=O)(O)OP(=O)(O)OP(=O)(O)OP(=O)(O)OP(=O)(O)OP(=O)(O)OC[C@H]2O[C@@H](n3cnc4c(N)ncnc43)[C@H](O)[C@@H]2O)[C@@H](O)[C@H]1O [Ap6A]	3	0.5		
O=C(O)[C@H](O)[C@@H](O)[C@H](O[C@@H]1O[C@H](CO)[C@H](O)[C@H](O)[C@H]1O)[C@H](O)CO [Lactobionic acid]	502	80		number of ligand molecules per aFGF (molar ratio) required for stabilization (acidic FGF (aFGF); 40° C.): about 80
Nc1ncnc2nc[nH]c12.O=S(=O)(O)O [adenine sulfate]			actually alestabilize the growth factor	
OC[C@H]1O[C@@H]2O[C@H]3[C@H](O)[C@@H](O)[C@@H](O[C@H]4[C@H](O)[C@@H](O)[C@@H](O[C@H]5[C@H](O)[C@@H](O)[C@@H](O[C@H]6[C@H](O)[C@@H](O)[C@@H](O[C@H]7[C@H](O)[C@@H](O)[C@@H](O[C@H]8[C@H](O)[C@@H](O)[C@@H](O[C@H]1[C@H](O)[C@H]2O)O[C@@H]8CO)O[C@@H]7CO)O[C@@H]6CO)O[C@@H]5CO)O[C@@H]4CO)O[C@@H]3CO [β-cyclodextrin (sulfur content zero), β-cyclodextrin]				Tm of aFGF, circular dichroism (aFGF): 46 °C
Chondroitin Sulfate B				IC50: concentration of ligand at which the rate of heat-induced aggregation of aFGF is 50% of the sample without ligand (acidic FGF (aFGF); [2]): 50 µg/mL; effect on rate and extent of aggregation of aFGF (acidic FGF (aFGF); 40° C., 0.5X ligand by weight): only a slight effect; effect on rate and extent of aggregation of aFGF (acidic FGF (aFGF); 40° C., 10X ligand by weight): significantly slows down the rate and extent of aggregation
Fucoidin			dramatically stabilize aFGF from heat-induced aggregation	IC50: concentration of ligand at which the rate of heat-induced aggregation of aFGF is 50% of the sample without ligand (acidic FGF (aFGF); [2]): 6 µg/mL
chondroitin sulfate A				effect on rate and extent of aggregation of aFGF (acidic FGF (aFGF); 40° C., 0.5X ligand by weight): only a slight effect; effect on rate and extent of aggregation of aFGF (acidic FGF (aFGF); 40° C., 10X ligand by weight): significantly slows down the rate and extent of aggregation
chondroitin sulfate C				effect on rate and extent of aggregation of aFGF (acidic FGF (aFGF); 40° C., 0.5X ligand by weight): only a slight effect; effect on rate and extent of aggregation of aFGF (acidic FGF (aFGF); 40° C., 10X ligand by weight): significantly slows down the rate and extent of aggregation
keratan sulfate			much less effective	
poly-glutamic acid			significantly enhance the thermal stability of aFGF	
polyaspartic acid [poly-Asp]			significantly enhance the thermal stability of aFGF	
polyvinyl sulfate			much less effective	
propyl-hydroxy-β- cyclodextrin				stabilization of aFGF, circular dichroism (aFGF; 3X by weight): did not stabilize addic FGF; Tm of aFGF, circular dichroism (aFGF): 47 °C
sulodexide [reference compound]			dramatically stabilize aFGF from heat-induced aggregation	
